Measurements from EP4603105A1, “PHARMACEUTICAL COMPOSITION CONTAINING CYCLIC COMPOUND HAVING SELECTIVE KRAS INHIBITORY EFFECT AGAINST HRAS AND NRAS” (CHUGAI SEIYAKU KABUSHIKI KAISHA, priority 2022, dated 2024).
Where a SMILES comes first, the peptide text is derived from it. Bridges are numbered along the chain shown (N, C = ends). [ ]: non-standard residue; d: D form. The star is where a group is joined. hPhe(3-Cl-4-CF3) = N[C@@H](CCc1ccc(C(F)(F)F)c(Cl)c1)C(=O)O; NPrPhe(4-CF3) = CCCN[C@@H](Cc1ccc(C(F)(F)F)cc1)C(=O)O; NMeGly(cPent) = CN[C@H](C(=O)O)C1CCCC1; Pro(4,4-F2) = O=C(O)[C@@H]1CC(F)(F)CN1; Pro(4,4-Me2) = CC1(C)CN[C@H](C(=O)O)C1; NMeD = CN[C@@H](CC(=O)O)C(=O)O; NMeL = CN[C@@H](CC(C)C)C(=O)O; NMeAbu = CC[C@H](NC)C(=O)O; Morpholide = C1CN(*)CCO1; Ac5c = NC1(C(=O)O)CCCC1; Ac4c = NC1(C(=O)O)CCC1; Sar = CNCC(=O)O

Experiments:
HRAS wild-type protein = HRAS wild-type protein (Homo sapiens, UniProt P01112); assay: Binding to HRAS by surface plasmon resonance (SPR), KD and KD ratio to KRAS
HRAS wild-type protein, sequence (P01112 whole entry): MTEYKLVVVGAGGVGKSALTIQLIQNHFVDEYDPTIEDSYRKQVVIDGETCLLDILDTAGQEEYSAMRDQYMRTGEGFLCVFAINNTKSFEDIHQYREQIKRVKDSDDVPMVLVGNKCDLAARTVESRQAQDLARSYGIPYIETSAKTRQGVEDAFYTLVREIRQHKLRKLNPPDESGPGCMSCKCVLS
Method in brief: (§1)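 Captured GDP-RAS (~100–300 RU) was exposed to increasing compound concentrations, 75 s per step, in running buffer with 10 µM GDP, 10 mM MgCl2 and 4% DMSO at pH 7.4.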

[1] = target: GDP-bound NRAS wild-type protein (Homo sapiens, UniProt P01111); assay: Binding to NRAS by surface plasmon resonance (SPR), KD and KD ratio to KRAS
GDP-bound NRAS wild-type protein, sequence (P01111 whole entry): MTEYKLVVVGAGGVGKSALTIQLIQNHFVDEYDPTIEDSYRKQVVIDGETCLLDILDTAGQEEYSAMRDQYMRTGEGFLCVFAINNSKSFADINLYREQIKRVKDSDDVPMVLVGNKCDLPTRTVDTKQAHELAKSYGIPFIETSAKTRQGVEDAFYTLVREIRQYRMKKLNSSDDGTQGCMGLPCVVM
Method in brief: as §1

[2] = tested on: human lung cancer strain NCI-H441; assay type: cell-based
Method in brief: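 Step one: dispense the test compound in serial DMSO dilutions. Step three: add the reagent and measure […].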

[3] = ratio of the KD value with respect to HRAS wild-type protein to the KD value with respect to KRAS
[4] = ratio of the KD value with respect to GDP-bound NRAS wild-type protein to the KD value with respect to KRAS
[5] = ratio of KD for HRAS wild-type protein to KD for KRAS
[6] = ratio of KD for GDP-bound NRAS wild-type protein to KD for KRAS

Structure (SMILES)	IC50 [2] [nM]	HRAS /KRAS (HRAS wild-type protein; [3])	NRAS /KRAS [1, 4]	HRAS /KRAS (HRAS wild-type protein; [5])	NRAS /KRAS [1, 6]	HRAS /KRAS (HRAS wild-type protein; ratio of KD value for HRAS wild-type protein to KD value for KRAS (SPR))	NRAS /KRAS ([1]; ratio of KD value for GDP-bound NRAS wild-type protein to KD value for KRAS (SPR))
CC[C@H](C)[C@@H]1NC(=O)[C@H](C)N(C)C(=O)C[C@@H](C(=O)N(C)C)N(C)C(=O)[C@H](C2CCCC2)N(C)C(=O)C2(CCC2)NC(=O)[C@@H]2CC(F)(F)CN2C(=O)[C@H](CCc2cc(F)c(C(F)(F)F)c(F)c2)NC(=O)CN(C)C(=O)[C@H](Cc2ccc(C(F)(F)F)cc2)N2CCCC[C@@H](C2=O)N(C)C(=O)CN(C)C1=O [PP0584]	7	C (A compound having a KD ratio of 0.1 or more and less than 3 is denoted as C)	C (A compound having a KD ratio of 0.1 or more and less than 3 is denoted as C)	–	–	–	–
CC[C@H](C)[C@@H]1NC(=O)[C@H](COC)N(C)C(=O)C[C@@H](C(=O)N2CCOCC2)N(C)C(=O)[C@H](C2CCCC2)N(C)C(=O)C2(CCC2)NC(=O)[C@@H]2C[C@H](OC)CN2C(=O)[C@H](CCc2cc(F)c(C(F)(F)F)c(F)c2)NC(=O)CN(C)C(=O)[C@H](Cc2ccc(C(F)(F)F)cc2)N2CCCCC[C@@H](C2=O)N(C)C(=O)CN(C)C1=O [PP0836]	360	–	–	B (a compound having 3 or more and less than 10 is denoted as B)	B (a compound having 3 or more and less than 10 is denoted as B)	–	–
CC[C@H](C)[C@@H]1NC(=O)[C@H](CC2CC2)N(C)C(=O)C[C@@H](C(=O)N(C)C)N(C)C(=O)[C@H](C2CCCC2)N(C)C(=O)C2(CCC2)NC(=O)[C@@H]2C[C@@H](C)CN2C(=O)[C@H](CCc2ccc(C(F)(F)F)c(OC)c2)NC(=O)CN(C)C(=O)[C@H](Cc2ccc(C)cc2)N2CC/C=C\C[C@@H](C2=O)N(C)C(=O)CN(C)C1=O [PP1863]	88.8	–	–	–	–	A (a compound having 10 or more and less than 20 is denoted as A)	A (a compound having 10 or more and less than 20 is denoted as A)
CCCN1C(=O)CN(C)C(=O)CNC(=O)[C@H]([C@@H](C)CC)NC(=O)[C@H](CC(C)C)N(C)C(=O)C[C@@H](C(=O)N2CCOCC2)N(C)C(=O)[C@H](C2CCCC2)N(C)C(=O)C2(CCCC2)NC(=O)[C@@H]2CC(C)(C)CN2C(=O)[C@H](CCc2ccc(C(F)(F)F)c(Cl)c2)NC(=O)CN(C)C(=O)[C@@H]1Cc1ccc(C(F)(F)F)cc1 [PP0448] ([NMeL]IG[Sar][NPrPhe(4-CF3)][Sar][hPhe(3-Cl-4-CF3)][Pro(4,4-Me2)][Ac5c][NMeGly(cPent)][NMeD]-Morpholide; lactam N-11)	2	C (A compound having a KD ratio of 0.1 or more and less than 3 is denoted as C)	B (a compound having 3 or more and less than 10 is denoted as B)	–	–	–	–
CCCN1C(=O)CN(C)C(=O)CN(C)C(=O)[C@H]([C@@H](C)CC)NC(=O)[C@H](CC(C)C)N(C)C(=O)C[C@@H](C(=O)N(C)C)NC(=O)[C@H](C2CCCC2)N(C)C(=O)C2(CCC2)NC(=O)[C@@H]2CC(F)(F)CN2C(=O)[C@H](CCc2ccc(C(F)(F)F)c(Cl)c2)NC(=O)CN(C)C(=O)[C@@H]1Cc1ccc(C(F)(F)F)cc1 [PP0358] ([NMeL]I[Sar][Sar][NPrPhe(4-CF3)][Sar][hPhe(3-Cl-4-CF3)][Pro(4,4-F2)][Ac4c][NMeGly(cPent)]D-NMe2; lactam N-11)	34.8	–	–	C (A compound having a KD ratio of 0.1 or more and less than 3 is denoted as C)	B (a compound having 3 or more and less than 10 is denoted as B)	–	–
CC[C@H](C)[C@@H]1NC(=O)[C@H](CC(C)C)N(C)C(=O)C[C@@H](C(=O)N2CCOCC2)N(C)C(=O)[C@H](C2CCCC2)N(C)C(=O)C2(CCCC2)NC(=O)[C@@H]2CCCN2C(=O)[C@H](CCc2ccc(C(F)(F)F)c(Cl)c2)NC(=O)CN(C)C(=O)[C@H](Cc2ccc(C(F)(F)F)cc2)N2CCCC[C@@H](C2=O)N(C)C(=O)CN(C)C1=O [PP0318]	2.3	–	–	B (a compound having 3 or more and less than 10 is denoted as B)	B (a compound having 3 or more and less than 10 is denoted as B)	–	–
C=CC[C@H]1C(=O)N[C@@H]([C@@H](C)CC)C(=O)N(C)CC(=O)N(C)[C@H]2CCCCN(C2=O)[C@@H](Cc2ccc(C(F)(F)F)cc2)C(=O)N(C)CC(=O)N[C@@H](CCc2cc(F)c(C(F)(F)F)c(F)c2)C(=O)N2C[C@H](OCC)C[C@H]2C(=O)N[C@](C)(CC=C)C(=O)N(C)[C@@H](C2CCCC2)C(=O)N(C)[C@H](C(=O)N2CCOCC2)CC(=O)N1C [PP0874]	4.9	–	–	B (a compound having 3 or more and less than 10 is denoted as B)	C (A compound having a KD ratio of 0.1 or more and less than 3 is denoted as C)	–	–
CC[C@H](C)[C@@H]1NC(=O)[C@H](CC(C)C)N(CC)C(=O)C[C@@H](C(=O)N2CCOCC2)N(C)C(=O)[C@H](C2CCCC2)N(C)C(=O)C2(CCCC2)NC(=O)[C@@H]2CCCN2C(=O)[C@H](CCc2cc(F)c(C(F)(F)F)c(F)c2)NC(=O)CN(C)C(=O)[C@H](Cc2ccc(C(F)(F)F)cc2)N2CCCC[C@@H](C2=O)N(C)C(=O)CN(C)C1=O [PP0588]	16.7	B (a compound having 3 or more and less than 10 is denoted as B)	B (a compound having 3 or more and less than 10 is denoted as B)	–	–	–	–

Now from value to compound, other results behind:

IC50 [2] [nM]	Structure (SMILES)	HRAS /KRAS (HRAS wild-type protein; [3])	NRAS /KRAS [1, 4]	HRAS /KRAS (HRAS wild-type protein; [5])	NRAS /KRAS [1, 6]	HRAS /KRAS (HRAS wild-type protein; ratio of KD value for HRAS wild-type protein to KD value for KRAS (SPR))	NRAS /KRAS ([1]; ratio of KD value for GDP-bound NRAS wild-type protein to KD value for KRAS (SPR))
5.8	CCO[C@@H]1C[C@H]2C(=O)NC3(CC(C)(C)C3)C(=O)N(C)[C@@H](C(CC)CC)C(=O)N(C)[C@H](C(=O)N(C)C)CC(=O)N(C)[C@@H](CC3CCC3)C(=O)N[C@@H]([C@@H](C)CC)C(=O)N(C)CC(=O)N(C)[C@H]3C/C=C\CCN(C3=O)[C@@H](Cc3ccc(C)cc3)C(=O)N(C)CC(=O)N[C@@H](CCc3ccc(C(F)(F)F)c(OC)c3)C(=O)N2C1 [PP2172]	B (a compound having 3 or more and less than 10 is denoted as B)	A (a compound having 10 or more and less than 20 is denoted as A)	–	–	–	–
56.3	CCC[C@H]1C(=O)N[C@@H]([C@@H](C)CC)C(=O)N(C)CC(=O)N(C)[C@H]2C/C=C\CCN(C2=O)[C@@H](Cc2ccc(C)cc2)C(=O)N(C)CC(=O)N[C@@H](CCc2ccc3sc(C)c(C)c3c2)C(=O)N2C[C@H](OCC)C[C@H]2C(=O)NC2(CC(C)(C)C2)C(=O)N(C)[C@@H](C(CC)CC)C(=O)N(C)[C@H](C(=O)N(C)C)CC(=O)N1C [PP2902]	–	–	A (a compound having 10 or more and less than 20 is denoted as A)	AA (a compound having 20 or more is denoted as AA)	–	–
8.5	CCO[C@@H]1C[C@H]2C(=O)NC3(CC(C)(C)C3)C(=O)N(C)[C@@H](C(CC)CC)C(=O)N(C)[C@H](C(=O)N(C)C)CC(=O)N(C)[C@@H](CC)C(=O)N[C@@H]([C@@H](C)CC)C(=O)N(C)CC(=O)N(C)[C@H]3C/C=C\CCN(C3=O)[C@@H](Cc3ccc(C)cc3)C(=O)N(C)CC(=O)N[C@@H](CCc3ccc(C(F)(F)F)c(OC)c3)C(=O)N2C1 [PP2170]	A (a compound having 10 or more and less than 20 is denoted as A)	A (a compound having 10 or more and less than 20 is denoted as A)	–	–	–	–
64.1	CCC[C@H]1C(=O)N[C@@H]([C@@H](C)CC)C(=O)N(C)CC(=O)N(C)[C@H]2C/C=C\CCN(C2=O)[C@@H](Cc2ccc(C(F)(F)F)cc2)C(=O)N(C)CC(=O)N[C@@H](CCc2cc(F)c(C(F)F)c(F)c2)C(=O)N2C[C@H](OCC)C[C@H]2C(=O)NC2(CC(C)(C)C2)C(=O)N(C)[C@@H](C(CC)CC)C(=O)N(C)[C@H](C(=O)N(C)C)CC(=O)N1C [PP2781]	–	–	A (a compound having 10 or more and less than 20 is denoted as A)	AA (a compound having 20 or more is denoted as AA)	–	–
20.2	CCC[C@H]1C(=O)N[C@@H]([C@@H](C)CC)C(=O)N(C)CC(=O)N(C)[C@H]2C/C=C\CCN(C2=O)[C@@H](Cc2ccc(C(F)(F)F)cc2)C(=O)N(C)CC(=O)N[C@@H](CCc2ccc3c(C)cn(C)c3c2)C(=O)N2C[C@H](OCC)C[C@H]2C(=O)NC2(CC(C)(C)C2)C(=O)N(C)[C@@H](C(CC)CC)C(=O)N(C)[C@H](C(=O)N(C)C)CC(=O)N1C [PP2908]	–	–	A (a compound having 10 or more and less than 20 is denoted as A)	AA (a compound having 20 or more is denoted as AA)	–	–
32.8	CCCN1C(=O)CN(C)C(=O)CN(C)C(=O)[C@H]([C@@H](C)CC)NC(=O)[C@H](CC(C)C)N(C)C(=O)C[C@@H](C(=O)N2CCOCC2)N(C)C(=O)[C@H](C2CCCC2)N(C)C(=O)C2(CCC2)NC(=O)[C@H](CC)N(C)C(=O)[C@H](CCc2ccc(C(F)(F)F)c(Cl)c2)NC(=O)CN(C)C(=O)[C@@H]1Cc1ccc(C(F)(F)F)cc1 [PP1918] ([NMeL]I[Sar][Sar][NPrPhe(4-CF3)][Sar][hPhe(3-Cl-4-CF3)][NMeAbu][Ac4c][NMeGly(cPent)][NMeD]-Morpholide; lactam N-11)	C (A compound having a KD ratio of 0.1 or more and less than 3 is denoted as C)	B (a compound having 3 or more and less than 10 is denoted as B)	–	–	–	–
28	CCCOC[C@H]1C(=O)N[C@@H]([C@@H](C)CC)C(=O)N(C)CC(=O)N(C)[C@H]2C/C=C\CCN(C2=O)[C@@H](Cc2ccc(C(F)(F)F)cc2)C(=O)N(C)CC(=O)N[C@@H](CCc2cc(F)c(C(F)(F)F)c(F)c2)C(=O)N2C[C@@H](C)C[C@H]2C(=O)NC2(CC(C)(C)C2)C(=O)N(C)[C@@H](C2CCCC2)C(=O)N(C)[C@H](C(=O)N(C)CC)CC(=O)N1C [PP2043]	A (a compound having 10 or more and less than 20 is denoted as A)	A (a compound having 10 or more and less than 20 is denoted as A)	–	–	–	–
